The values that follow are results of earlier work, collected in patent US20100104643A1, “PHARMACEUTICAL COMPOSITIONS” (ZYSIS LIMITED, priority 2007, published 2010).

Each structure is given as a SMILES string.

The conditions of series [1]: for dose-concentration relationship: plasma concentrations.
For series [2] the following is noted: trimipramine antidepressant treatment.

For `CC(CN(C)C)CN1c2ccccc2CCc2ccccc21` (stereo not drawn) [trimipramine, 10,11-Dihydro-5-(3-dimethylamino-2-methylpropyl)-5H-dibenz(b,f) azepine], in series [1] (CYP2D6 genotypes), the “bioavailability difference between poor and ultra-fast metabolizers” value is given as 6 fold. Further, the “mean systemic clearances, ultrarapid metabolizers of CYP2D6 substrates versus poor metabolizers” value in series [1] (higher in ultrarapid than in poor metabolizers) is given as 2.5 fold. Also, in series [1], the dose-concentration relationship result is on record as “linear dose-concentration relationship for doses up to 150 mg”. Besides, in series [1] (poor metabolizer group), the “total oral clearance, low extreme” value is 3.5 L/h. Further, the “difference in total oral clearance” value in series [1] (poor versus ultrarapid CYP2D6 metabolizers) is reported as “about 15 fold”. Besides, the “total oral clearance, high extreme” value in series [1] (ultrarapid metabolizer group) is 712.6 L/h. Also, the “upper limit of the therapeutic trough plasma concentrations” value in series [2] is 0.24 mg/L.

For the molecule `CNCC(C)CN1c2ccccc2CCc2ccccc21` (stereo not drawn) [desmethyltrimipramine], the dose-concentration relationship entry in series [1] is reported as “deviation from linearity within the therapeutic dose range”. Moreover, the “upper limit of the therapeutic trough plasma concentrations” value in series [2] is 0.38 mg/L.
